Assay results reported in patent US6984633B2, “Method to treat cardiofibrosis with a combination therapy of an angiotensin II antagonist and epoxymexrenone” (G.D Searle & Co., priority 1995, dated 2006).
Read-outs that look alike come from different tables or passages of the source.

What was measured:
pressor response to AII [1] = test: Assay C: In vivo intragastric pressor assay response for AII antagonists; parameters: species or system rat; conditions: dose not given, intragastrically
Protocol: Assay C: In Vivo Intragastric Pressor Assay Response for All Antagonists
Male Sprague-Dawley rats weighing 225-300 grams were anesthetized with methohexital (30 mg/kg, i.p.) and catheters were implanted into the femoral artery and vein. The catheters were tunneled subcutaneously to exit dorsally, posterior to the head and between the scapulae. The catheters were filled with heparin (1000 units/ml of saline). The rats were returned to their cage and allowed regular rate chow and water ad libitum. After full recovery from surgery (3-4 days), rats were placed in Lucite holders and the arterial line was connected to a pressure transducer. Arterial pressure was recorded on a Gould polygraph (mmHg). Angiotensin II was administered as a 30 ng/kg bolus via the venous catheter delivered in a 50 μl volume with a 0.1 ml saline flush. The pressor response in mm Hg was measured by the difference from pre-injection arterial pressure to the maximum pressure achieved. The AII injection was repeated every 10 minutes until three consecutive injections yielded responses within 4 mmHg of each other. These three responses were then averaged and represented the control response to AII. The test compound was suspended in 0.5% methylcellulose in water and was administered by gavage. The volume administered was 2 ml/kg body weight. The standard dose was 3 mg/kg. Angiotensin II bolus injections were given at 30, 45, 60, 75, 120, 150, and 180 minutes after gavage. The pressor response to AII was measured at each time point. The rats were then returned to their cage for future testing. A minimum of 3 days was allowed between tests. Percent inhibition was calculated for each time point following gavage by the following formula: [(Control Response—Response at time point)/Control Response]×100.

[2] = biological target: angiotensin II AT1 receptor; test: Assay A: Angiotensin II binding activity, 125I-AII displacement in rat uterine membrane preparation
Protocol: Assay A: Antiotensin II Binding Activity
Compounds of the invention were tested for ability to bind to the smooth muscle angiotensin II receptor using a rat uterine membrane preparation. […] The reaction was initiated by the addition of membrane protein and the mixture was incubated at 25° C. for 60 min. The incubation was terminated with ice-cold 50 mM Tris-HCl (pH 7.5) and the mixture was filtered to separate membrane-bound labelled peptide from the free ligand. The incubation tube and filter were washed with ice-cold buffer. Filters were assayed for radioactivity in a Micromedic gamma counter. Nonspecific binding was defined as binding in the presence of 10 μM of unlabelled AII. Specific binding was calculated as total binding minus nonspecific binding. […] Binding data were analyzed by a nonlinear least-squares curve fitting program.

pressor response to AII [3] = test: Assay C: In vivo intragastric pressor assay response for AII antagonists; parameters: species or system rat; conditions: dose not given, intraduodenally
rabbit aortic rings = test: Assay B: In vitro vascular smooth muscle response for AII, antagonist activity in aortic rings; type: cell-based; conditions: Oryctolagus cuniculus, two determinations separated by /, read-out: Assay B pA2 (converted)
Protocol: Assay B: In Vitro Vascular Smooth Muscle-Response for AII
The compounds of the invention were tested for antagonist activity in rabbit aortic rings. Male New Zealand white rabbits (2-2.5 kg) were sacrificed using an overdose of pentobarbital and exsanguinated via the carotid arteries. The thoracic aorta was removed, cleaned of adherent fat and connective tissue and then cut into 3-mm ring segments. The endothelium was removed from the rings by gently sliding a rolled-up piece of filter paper into the vessel lumen. The rings were then mounted in a water-jacketed tissue bath, maintained at 37° C., between moveable and fixed ends of a stainless steel wire with the moveable end attached to an FT03 Grass transducer coupled to a Model 7D Grass Polygraph for recording isometric force responses. The bath was filled with 20 ml of oxygenated (95% oxygen/5% carbon dioxide) Krebs solution of the following composition (mM); 130 NaCl, 15 NaHCO3, […], 1.2 NaH2PO4, 1.2 MgSO4, 2.5 CaCl2, and 11.4 glucose. The preparations were equilibrated for one hour before approximately one gram of passive tension was placed on the rings. Angiotensin II concentration-response curves were then recorded (3×10^−10 to 1×10^−5 M). Each concentration of AII was allowed to elicit its maximal contraction, and then AII was washed out repeatedly for 30 minutes before rechallenging with a higher concentration of AII. Aorta rings were exposed to the test antagonist at 10^−5 M for 5 minutes before challenging with AII. Adjacent segments of the same aorta ring were used for all concentration-response curves in the presence of absence of the test antagonist. The effectiveness of the test compound was expressed in terms of pA2 values and were calculated according to H. O. Schild [Br. J. Pharmacol. Chemother., 2, 189-206 (1947)]. The pA2 value is the concentration of the antagonist which increases the EC50 value for AII by a factor of two. Each test antagonist was evaluated in aorta rings from two rabbits.

myocardial fibrosis = conditions: animal models, cited from earlier work

## CCCCc1nn(CC(=O)c2ccccc2)c(=O)n1Cc1ccc(-c2ccccc2-c2nn[nH]n2)cc1 [Compound 82]
Pressor response to AII [1]
  Assay C Duration: 180 min

## CCCCc1nn(CC(OCC(=O)O)c2ccccc2)c(=O)n1Cc1ccc(-c2ccccc2-c2nn[nH]n2)cc1 (stereo not drawn) [Compound 91]
Pressor response to AII [1]
  Assay C Duration: >180 min

## CCCCc1nc2c(OC(C)=O)nnc(OC(C)=O)c2n1Cc1ccc(-c2ccccc2-c2nnn[nH]2)cc1 [Compound 125]
[2]
  IC50: 40 nM

## CCCn1nc(C(F)F)nc1Cc1ccc(-c2ccccc2-c2nnn[nH]2)nc1 [Compound 162]
[2]
  IC50: 380 nM

## CCCCc1nc(CCCC)n(Cc2ccc(-n3c(Cl)cc(Cl)c3-c3nnn[nH]3)cc2)n1 [Compound 143]
Pressor response to AII [3]
  Assay C Duration: 75 min

## CCCCc1nn(CCCc2ccccc2)c(=O)n1Cc1ccc(-c2ccccc2-c2nn[nH]n2)cc1 [Compound 81]
Pressor response to AII [1]
  Assay C Duration: 180 min

## CCCCc1nn(CCCC)c(=O)n1Cc1ccc(-c2ccccc2C(=O)O)cc1 [Compound 78]
Pressor response to AII [3]
  Assay C Duration: 60 to 100 min

## CCCCc1nn(CC(=O)OC(C)(C)C)c(=O)n1Cc1ccc(-c2ccccc2-c2nn[nH]n2)cc1 [Compound 84]
Pressor response to AII [1]
  Assay C Duration: 30 min

## CCCCc1nn(CC(C)c2cc(OC)ccc2OC)c(=O)n1Cc1ccc(-c2ccccc2-c2nn[nH]n2)cc1 (stereo not drawn) [Compound 98]
[2]
  IC50: 22 nM
Rabbit aortic rings
  Kb: 7.94 nM

## CCCCc1nn(CC(O)c2ccccc2)c(=O)n1Cc1ccc(-c2ccccc2-c2nn[nH]n2)cc1 (stereo not drawn) [Compound 83]
Pressor response to AII [1]
  Assay C Duration: >180 min

## CCCCc1cn(CCc2ccccc2)c(=O)n1Cc1ccc(-c2ccccc2-c2nnn[nH]2)cc1 [Compound 133]
Pressor response to AII [1]
  Assay C Duration: 90 to 120 min

## CCCCn1nc(C(F)F)nc1Cc1ccc(-c2ccccc2-c2nnn[nH]2)nc1 [Compound 163]
[2]
  IC50: 420 nM

## CC(=O)S[C@@H]1CC2=CC(=O)CC[C@]2(C)[C@H]2CC[C@@]3(C)[C@@H](CC[C@@]34CCC(=O)O4)[C@H]12 [spironolactone]
Myocardial fibrosis
  prevention of myocardial fibrosis: prevents myocardial fibrosis in animal models
Myocardial fibrosis; listed as Spironolactone
  prevention of myocardial fibrosis: prevent fibrosis in animal models irrespective of the development of left ventricular hypertrophy and the presence of hypertension
